Among the test systems are DLD-1 colon; DMS 114 small cell lung; KM20L2 colon; XF 498 CNS; M19-MEL melanoma; RXF-631 renal; PC-3 prostate; HS 578T breast; T-47D breast; MCF7 breast; DU-145 prostate; MDA-MB-435.
Holding throughout (assay): inhibition of tumour cell growth, NCI panel, 48 h

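Five compound concentrations were applied to cells in 96-well plates for 48 hours; endpoints were derived by simple linear interpolation of the resulting dose-response curve. GI50 = concentration required for 50% inhibition of growth. TGI is the concentration that stops growth completely.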 Where only a bound is given, the exact number is not on record here.

Take `COc1cc([C@@H]2c3cc4c(cc3[C@@H](NCc3cccc(F)c3)C3COC(=O)[C@@H]32)OCO4)cc(OC)c1O` (some centres not stated): the TGI with DLD-1 colon is more than 65 µM; with DMS 114 small cell lung, 31.6 µM; with KM20L2 colon, 21.2 µM.
On to `NC(=O)c1nc(-c2ccc(Cl)c(Cl)c2)nc2ccccc12`, for which the TGI in the test on DLD-1 colon, with XF 498 CNS, in the test on DMS 114 small cell lung, with KM20L2 colon and in the test with M19-MEL melanoma was more than 100 µM each time.
In the case of `CCCCCC/C(CC(=O)CCC(=O)NCCc1ccccc1)=N\Nc1ccc([N+](=O)[O-])cc1[N+](=O)[O-]`, the TGI is more than 100 µM with DLD-1 colon; 56.4 µM with DMS 114 small cell lung; more than 100 µM in the test with RXF-631 renal; more than 100 µM in the test on KM20L2 colon; more than 100 µM with M19-MEL melanoma.
On to `C/C(=N\Nc1n[nH]c(=S)n1N)c1c(O)cc(C)oc1=O`, for which the TGI in the test with DLD-1 colon, with KM20L2 colon and with M19-MEL melanoma was more than 100 µM in each case.
With `CCOC(=O)C(=O)Nc1nc2ccc(C)cc2s1`, the TGI in the test with DLD-1 colon, in the test with XF 498 CNS, in the test with DMS 114 small cell lung, in the test on RXF-631 renal, in the test with KM20L2 colon and with M19-MEL melanoma was more than 100 µM throughout.
As for `COC(=O)C(/C(=N\O)C(=O)Nc1ccc(Br)cc1)c1nc2ccccc2[nH]c1=O` (configuration not stated), the TGI was more than 100 µM in the test on DLD-1 colon; 41.2 µM in the test with DMS 114 small cell lung; more than 100 µM in the test on RXF-631 renal; more than 100 µM in the test on KM20L2 colon; 68.2 µM in the test with M19-MEL melanoma.
Consider `O=C(CCc1cc(-c2ccc(F)cc2)n[nH]1)N(Cc1ccccc1)Cc1ccccc1`, for which the TGI in the test with XF 498 CNS, in the test on DMS 114 small cell lung, in the test with KM20L2 colon and in the test with M19-MEL melanoma was more than 100 µM each time.
For the compound `CCOc1ccccc1NC(=O)C1=C(C)NC(C)=C(C(=O)Nc2ccccc2OCC)C1c1cccc([N+](=O)[O-])c1`, the TGI with DLD-1 colon, with XF 498 CNS, in the test on DMS 114 small cell lung, with KM20L2 colon and with M19-MEL melanoma was more than 100 µM each time.
Take `Oc1ccc(O)c(-n2cccn2)c1-n1cccn1`: the TGI in the test with DLD-1 colon, with XF 498 CNS, with DMS 114 small cell lung, in the test on KM20L2 colon and with M19-MEL melanoma was more than 100 µM throughout.
As to `Cc1nc(-n2nc(-c3ccccc3)cc2-c2ccccc2)sc1C(=O)CC(=O)C(=O)Nc1ccc(O)cc1`, the TGI with DLD-1 colon, with DMS 114 small cell lung, with RXF-631 renal and in the test with KM20L2 colon was more than 100 µM in each case.
With `C[C@H]1CCC2C(OC(=O)[C@@H]2CN(C)C)[C@]2(C)C(=O)C=CC12O` (some centres not stated), the TGI was 44.9 µM with PC-3 prostate; 11 µM with DLD-1 colon; more than 100 µM with HS 578T breast; 13.2 µM with T-47D breast; 24.5 µM in the test with MCF7 breast; 23.2 µM in the test on DU-145 prostate. The TGI is 22.4 µM in the test with MDA-MB-435; 11.6 µM in the test with DMS 114 small cell lung; 3.11 µM with RXF-631 renal; 17.7 µM in the test on KM20L2 colon; 20.3 µM in the test on M19-MEL melanoma.
For the compound `COc1ccc(/C=C2/CSC/C(=C/c3ccc(OC)c(OC)c3)C2=O)cc1OC`, the TGI was 11.7 µM with PC-3 prostate; 4.94 µM in the test with T-47D breast; 25.8 µM in the test with XF 498 CNS; more than 100 µM with MCF7 breast; 9.07 µM in the test with DU-145 prostate; more than 100 µM in the test with MDA-MB-435. In addition, the TGI with RXF-631 renal stood at 6.41 µM; in the test on KM20L2 colon, 6.53 µM; in the test with M19-MEL melanoma, 6.63 µM.
Consider `CCN1CCC(O)(/C=C/c2ccccc2)C(C(=O)/C=C/c2ccccc2)C1` (configuration not stated), for which the TGI came out at 8.22 µM in the test with DLD-1 colon; 18.5 µM with XF 498 CNS; 5.6 µM with DMS 114 small cell lung; 15 µM in the test on RXF-631 renal; 7.22 µM with KM20L2 colon; 4.18 µM in the test on M19-MEL melanoma.
For the compound `N#CC(C#N)C(c1ccccc1)c1ccccc1`, the TGI in the test on DLD-1 colon, with DMS 114 small cell lung, in the test on RXF-631 renal and with KM20L2 colon was more than 100 µM throughout.
`CCOC(=O)CC(C)C1(C=O)CCCCC1=O` (configuration not stated): the TGI in the test on DLD-1 colon was more than 100 µM; with XF 498 CNS, more than 100 µM; in the test with DMS 114 small cell lung it was 41.6 µM; with RXF-631 renal, more than 100 µM; in the test with KM20L2 colon it was more than 100 µM; in the test with M19-MEL melanoma it was more than 100 µM.
On to `CCCC(=O)OC(OC(=O)CCC)c1ccc([N+](=O)[O-])o1`, for which the TGI in the test with PC-3 prostate is more than 100 µM; in the test with HS 578T breast it was more than 100 µM; with T-47D breast, 61.5 µM; with MCF7 breast it was 35.4 µM; in the test on DU-145 prostate it was more than 100 µM; in the test with MDA-MB-435 it was 47.4 µM.
As to `C[C@H]1CC[C@@H]2[C@@H](C)[C@H]3[C@H](C[C@H]4[C@@H]5CC=C6C[C@@H](O)CC[C@]6(C)[C@H]5CC[C@]34C)N2C1`, the TGI in the test on PC-3 prostate was more than 100 µM; with HS 578T breast, 97.9 µM; in the test with T-47D breast, more than 100 µM; in the test with MCF7 breast, more than 100 µM; in the test with DU-145 prostate, more than 100 µM; with MDA-MB-435, more than 100 µM.
For `O=S(=O)(Nc1ccc(Cl)c(Cl)c1)c1ccc(-c2cnc(C3CC3)o2)cc1`, the GI50 in the test with PC-3 prostate is 0.474 µM; in the test on HS 578T breast, 0.455 µM; in the test on T-47D breast, 0.349 µM; in the test with MCF7 breast it was 0.289 µM; with DU-145 prostate, 0.736 µM; in the test on MDA-MB-435, 0.139 µM. In addition, the TGI in the test with PC-3 prostate is 14.5 µM; with HS 578T breast, 30.7 µM; in the test on T-47D breast it was 18.6 µM; in the test on MCF7 breast it was 18.3 µM; with DU-145 prostate, 13.9 µM; in the test with MDA-MB-435 it was 0.674 µM.
Take `N/C(CC(=O)NOC(=O)c1ccccc1)=N/OC(=O)c1ccccc1`: the TGI was more than 100 µM with PC-3 prostate; more than 100 µM in the test with HS 578T breast; more than 100 µM in the test with T-47D breast; 92.4 µM with MCF7 breast; more than 100 µM in the test with DU-145 prostate; more than 100 µM in the test on MDA-MB-435.
Take `Nc1ccn(C2CC3OCC3O2)c(=O)n1` (configuration not stated): the TGI in the test with PC-3 prostate, in the test on HS 578T breast, in the test on T-47D breast, in the test on MCF7 breast, in the test on DU-145 prostate and in the test on MDA-MB-435 was more than 100 µM throughout.

For the origin of these results see PubChem BioAssay (NCI).
